We go through 25 compounds from patent US20040106626A1, “6-Membered unsaturated heterocyclic compounds useful for selective inhibition of the coagulation cascade” (Pharmacia Corporation, priority 2001, published 2004).

Like-named read-outs stand apart in the source and are kept apart here.

Holding throughout (format): biochemical
Test [1] concerns the target T1, recombinant soluble tissue factor and recombinant human factor VIIa (TF-VIIa) (Homo sapiens, UniProt P08709).
T1 construct: conversion of coagulation factor VII to VIIa by factor Xa; purchased American Diagnostica, Greenwich CT; host or cells: soluble TF made in house in E. coli
Briefly: TF-VIIa assay (chromogenic substrate hydrolysis). Conditions: reported only as less than or greater than 0.1 uM. As for the experimental part: In this assay 100 nM recombinant soluble tissue factor and 2 nM recombinant human factor VIIa are added to a 96-well assay plate containing 0.4 mM of the substrate, N-methylsulfonyl-D-phe-gly-arg-p-nitroaniline and either inhibitor or buffer (5 mM CaCl2, 50 mM Tris-HCl, pH 8.0, 100 mM NaCl, 0.1% BSA). […] Percent inhibition of TF-VIIa activity is calculated from OD405 nm value from the experimental and control sample.
(§1) Recombinant human VIIa was purchased from American Diagnostica, Greenwich CT and chromogenic substrate N-methylsulfonyl-D-phe-gly-arg-p-nitroaniline was prepared by American Peptide Company, Inc., Sunnyvale, Calif. Factor Xa was obtained from Enzyme Research Laboratories, South Bend Ind., thrombin from Calbiochem, La Jolla, Calif., and trypsin and L-BAPNA from Sigma, St. Louis Mo.

Test [2] addresses T2, Human factor Xa (Homo sapiens, UniProt P00742).
T2 construct: purchased Enzyme Research Laboratories, South Bend Ind
Briefly: Xa assay (chromogenic substrate S-2765). Conditions: reported only as less than or greater than 30 uM; read-out: Factor Xa (II) IC50. The protocol:
Human factor Xa (0.3 nM) and 0.15 mM -a-Benzyloxycarbonyl-D-arginyl-L-glycyl-L-arginine-p-nitroaniline-dihydrochloride (S-2765) are added to a 96-well assay plate containing either inhibitor or buffer (50 mM Tris-HCl, pH 8.0, 100 mM NaCl, 0.1% BSA). The reaction, in a final volume of 100 ul is measured immediately at 405 nm to determine background absorbance. The plate is incubated at room temperature for 60 min, at which time the rate of hydrolysis of the substrate is measured by monitoring the reaction at 405 nm for the release of p-nitroaniline. Percent inhibition of Xa activity is calculated from OD405 nm value from the experimental and control sample.
Recombinant soluble TF, consisting of amino acids 1-219 of the mature protein sequence was expressed in E. coli and purified using a Mono Q Sepharose FPLC. Recombinant human VIIa was purchased from American Diagnostica, Greenwich CT and chromogenic substrate N-methylsulfonyl-D-phe-gly-arg-p-nitroaniline was prepared by American Peptide Company, Inc., Sunnyvale, Calif. Factor Xa was obtained from Enzyme Research Laboratories, South Bend Ind., thrombin from Calbiochem, La Jolla, Calif., and trypsin and L-BAPNA from Sigma, St. Louis Mo. The chromogenic substrates S-2765 and S-2238 were purchased from Chromogenix, Sweden.

The target in test [3] is T3, Human thrombin (Homo sapiens, UniProt P00734).
T3 construct: converts prothrombin (II) to thrombin (IIa); purchased Calbiochem, La Jolla, Calif
Kind of test: Thrombin assay (chromogenic substrate). The protocol: Percent inhibition of thrombin activity is calculated from OD405 nm value from the experimental and control sample.
as §1

The test system of test [4] is Normal human pooled plasma. Kind of test: Prothrombin time (PT) clotting assay. Conditions: concentration at which prothrombin time is prolonged by 2x normal, reported as less than or greater than 50 uM. As for the experimental part:
The prothrombin time (PT) assay is a clotting assay that is used to determine deficiencies of clotting factor activity in the extrinsic pathway. The assay measures time to clotting after the addition of thromboplastin (human tissue factor). Normal human pooled plasma is incubated with 100 uM compound or saline in a coagulation machine. Thromboplastin is added and time to clotting is measured. Compounds with greater than 3×normal PT of 11.0 seconds are further analyzed by concentration response to determine at what concentration the prothrombin time is prolonged by 2×normal.

Where [5] appears, read: reported only as less than or greater than 30 uM, read-out: Thrombin (II) IC50.

T1 sequence (P08709 213-466 limits assumed): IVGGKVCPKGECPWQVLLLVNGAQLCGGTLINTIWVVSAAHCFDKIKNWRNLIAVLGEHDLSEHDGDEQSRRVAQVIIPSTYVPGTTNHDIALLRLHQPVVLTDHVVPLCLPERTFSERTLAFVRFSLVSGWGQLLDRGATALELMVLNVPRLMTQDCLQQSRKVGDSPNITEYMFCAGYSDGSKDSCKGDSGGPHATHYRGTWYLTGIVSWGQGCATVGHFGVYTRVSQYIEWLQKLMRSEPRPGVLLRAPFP
T1 sequence (P08709 61-212 limits assumed): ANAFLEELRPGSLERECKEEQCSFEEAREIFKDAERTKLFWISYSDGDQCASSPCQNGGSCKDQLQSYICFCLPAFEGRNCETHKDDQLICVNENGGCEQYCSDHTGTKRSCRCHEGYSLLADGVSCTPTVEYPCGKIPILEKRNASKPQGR
T1 sequence (P13726 33-251 partner limits assumed): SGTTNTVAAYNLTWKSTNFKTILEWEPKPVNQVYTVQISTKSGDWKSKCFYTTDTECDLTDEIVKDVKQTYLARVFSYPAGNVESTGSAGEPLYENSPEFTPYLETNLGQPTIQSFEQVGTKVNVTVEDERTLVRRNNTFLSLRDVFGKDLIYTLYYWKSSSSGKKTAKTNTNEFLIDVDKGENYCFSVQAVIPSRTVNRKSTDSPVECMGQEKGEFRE
T2 sequence (P00742 235-488 limits assumed): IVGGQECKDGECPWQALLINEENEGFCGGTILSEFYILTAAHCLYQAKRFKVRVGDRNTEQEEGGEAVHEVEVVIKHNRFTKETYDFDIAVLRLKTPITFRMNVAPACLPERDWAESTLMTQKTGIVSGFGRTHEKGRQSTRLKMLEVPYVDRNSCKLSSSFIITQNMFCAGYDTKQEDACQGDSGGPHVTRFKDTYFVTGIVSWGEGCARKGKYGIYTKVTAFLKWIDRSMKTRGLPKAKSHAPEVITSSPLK
T2 sequence (P00742 41-179 limits assumed): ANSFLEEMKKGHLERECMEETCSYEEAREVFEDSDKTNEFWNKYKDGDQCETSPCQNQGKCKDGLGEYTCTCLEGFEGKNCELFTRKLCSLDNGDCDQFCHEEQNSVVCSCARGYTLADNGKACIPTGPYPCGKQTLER

Regarding `CC(C)Nc1ncc(-c2cc(N)cc(C(=O)NCc3cccc(O)c3)c2)n(CC(=O)NCc2ccc(C(=N)N)cc2)c1=O` [Example 166], the IC50 was less than 0.1 µM in test [1], greater than 30 µM in test [2] and greater than 30 µM in test [3] (setting [5]). Further, the “PT (Prothrombin time) 2xPT” value in test [4] is less than 50.0 µM.

On to `COc1cccc(CC(=O)Nc2cc(N)cc(-c3cnc(NC(C)C)c(=O)n3CC(=O)NCc3ccc(C(=N)N)cc3)c2)c1` [Example 105], for which the values for the IC50 in test [1], in test [2] and in test [3] (setting [5]) were less than 0.1 µM, greater than 30 µM and greater than 30 µM, respectively. Moreover, the “PT (Prothrombin time) 2xPT” value in test [4] is less than 50.0 µM.

As for `CC[C@H](C)NC(=O)c1cc(N)cc(-c2cnc(N[C@@H](C)CC)c(=O)n2CC(=O)NCc2ccc(C(=N)N)cc2)c1.O=C(O)C(F)(F)F.O=C(O)C(F)(F)F` [Example 191], the values for the IC50 in test [1], in test [2] and in test [3] (setting [5]) were less than 0.1 µM, greater than 30 µM and less than 30 µM, respectively. Moreover, the “PT (Prothrombin time) 2xPT” value in test [4] was less than 50.0 µM.

For `CCCC(C)C(=O)Nc1cc(N)cc(-c2cnc(NC(C)C)c(=O)n2CC(=O)NCc2ccc(C(=N)N)cc2)c1.O=C(O)C(F)(F)F.O=C(O)C(F)(F)F` (stereo not drawn) [Example 128], the IC50 is less than 0.1 µM in test [1], greater than 30 µM in test [2] and greater than 30 µM in test [3] (setting [5]). Moreover, the “PT (Prothrombin time) 2xPT” value in test [4] was less than 50.0 µM.

With `CC(C)Nc1ncc(-c2cc(N)cc(OCCC(C)(C)C)c2)n(CC(=O)NCc2ccc(C(=N)N)cc2)c1=O.O=C(O)C(F)(F)F.O=C(O)C(F)(F)F` [Example 215], the IC50 in test [1] was less than 0.1 µM; in test [2], greater than 30 µM; in test [3] (setting [5]) it was greater than 30 µM. For the same compound, in test [4], the “PT (Prothrombin time) 2xPT” value was less than 50.0 µM.

On to `CC(C)C[S+]([O-])c1cc(N)cc(-c2cnc(NC(C)C)c(=O)n2CC(=O)NCc2ccc(C(=N)N)cc2)c1` (stereo not drawn) [Example 73, N-{4-[amino(imino)methyl]benzyl}-2-[6-[3-amino-5-(isobutylsulfinyl)phenyl]-3-(isopropylamino)-2-oxopyrazin-1 (2H)-yl]acetamide], for which the IC50 in test [1] is less than 0.1 µM; in test [2] it was greater than 30 µM; in test [3] (setting [5]) it was greater than 30 µM. For the same compound, the “PT (Prothrombin time) 2xPT” value in test [4] is less than 50.0 µM.

For the compound `CC(C)Nc1ncc(-c2cc(N)cc(OC(=O)NCc3ccccc3)c2)n(CC(=O)NCc2ccc(C(=N)N)cc2)c1=O.O=C(O)C(F)(F)F.O=C(O)C(F)(F)F` [Example 239], the IC50 is less than 0.1 µM in test [1]; greater than 30 µM in test [2]; greater than 30 µM in test [3] (Thrombin (II) IC50, reported only as less than or greater than 30 uM). In addition, the “PT (Prothrombin time) 2xPT” value in test [4] was less than 50.0 µM.

For the compound `CC(C)Nc1ncc(-c2cc(N)cc(NCc3ccccc3)c2)n(CC(=O)NCc2ccc(C(=N)N)cc2)c1=O` [Example 98], the IC50 was less than 0.1 µM in test [1], greater than 30 µM in test [2] and greater than 30 µM in test [3] (setting [5]). For the same compound, the “PT (Prothrombin time) 2xPT” value in test [4] is less than 50.0 µM.

As to `CC(C)Nc1ncc(-c2cc(N)cc(NCc3ccsc3)c2)n(CC(=O)NCc2ccc(C(=N)N)cc2)c1=O` [Example 103], the IC50 in test [1] is less than 0.1 µM; in test [2], greater than 30 µM; in test [3] (setting [5]), greater than 30 µM. For the same compound, the “PT (Prothrombin time) 2xPT” value in test [4] was less than 50.0 µM.

As to `CC(C)Nc1nc(Br)c(-c2cc(N)cc(C(=O)O)c2)n(CC(=O)NCc2ccc(C(=N)N)cc2)c1=O` [Example 3, 3-Amino-5-[1-[2-({4-[amino(imino)methyl]benzyl}amino)-2-oxoethyl]-3-bromo-5-(isopropylamino)-6-oxo-1,6-dihydropyrazin-2-yl]benzoic Acid], the IC50 in test [1] is less than 0.1 µM; in test [2] it was greater than 30 µM. The “PT (Prothrombin time) 2xPT” value in test [4] was less than 50.0 µM.

Take `CC[C@H](C)NC(=O)c1cc(N)cc(-c2cnc(NC(C)C)c(=O)n2CC(=O)NCc2ccc(C(=N)N)cc2)c1` [Example 71]: the IC50 in test [3] (setting [5]) is less than 30 µM. The “PT (Prothrombin time) 2xPT” value in test [4] is less than 50.0 µM.

Regarding `CC(C)Nc1ncc(-c2cc(N)cc(C(=O)NCc3cccc(F)c3)c2)n(CC(=O)NCc2ccc(C(=N)N)cc2)c1=O.O=C(O)C(F)(F)F.O=C(O)C(F)(F)F` [Example 29], the “PT (Prothrombin time) 2xPT” value in test [4] is less than 50.0 µM.

`CC(C)Nc1ncc(-c2cc(N)c3[nH]ccc3c2)n(CC(=O)NCc2ccc(C(=N)N)cc2)c1=O.O=C(O)C(F)(F)F.O=C(O)C(F)(F)F` [Example 249]: the IC50 is less than 0.1 µM in test [1] and greater than 30 µM in test [3] (setting [5]). In test [4], the “PT (Prothrombin time) 2xPT” value was less than 50.0 µM.

As for `CC(C)Nc1nc(Cl)c(-c2cc(N)cc(O)c2)n(CC(=O)NCc2ccc(C(=N)N)cc2)c1=O.O=C(O)C(F)(F)F` [Example 178], the IC50 in test [1] is less than 0.1 µM; in test [2], greater than 30 µM. The “PT (Prothrombin time) 2xPT” value in test [4] was less than 50.0 µM.

With `CCCCNc1cc(N)cc(-c2cnc(NC(C)C)c(=O)n2CC(=O)NCc2ccc(C(=N)N)cc2)c1.O=C(O)C(F)(F)F.O=C(O)C(F)(F)F` [Example 145], in test [1], the IC50 was less than 0.1 µM. The “PT (Prothrombin time) 2xPT” value in test [4] was less than 50.0 µM.

With `CCC(C)NC(=O)c1cc(N)cc(-c2cnc(NC(C)C)c(=O)n2CC(=O)NCc2ccc(C(=N)N)c(O)c2)c1` (stereo not drawn) [Example 115], the IC50 in test [1] is less than 0.1 µM. Also, the “PT (Prothrombin time) 2xPT” value in test [4] is less than 50.0 µM.

For `CC(C)Nc1ncc(-c2cc(N)cc(C(F)(F)F)c2)n(CC(=O)NCc2ccc(C(=N)N)c(F)c2)c1=O.Cl` [Example 154, N-{4-[amino(imino)methyl]-3-fluorobenzyl}-2-[6-[3-amino-5-(trifluoromethyl)phenyl]-3-(isopropylamino)-2-oxopyrazin-1 (2H)-yl]acetamide], the “PT (Prothrombin time) 2xPT” value in test [4] is greater than 50.0 µM.

Consider `CC[C@@H](C)NC(=O)c1cc(N)cc(-c2cnc(NC(C)C)c(=O)n2CC(=O)NCc2ccc(C(=N)N)c(O)c2)c1.O.O.O=C(O)C(F)(F)F` [Example 254], for which the IC50 in test [1] was less than 0.1 µM; in test [3] (setting [5]), greater than 30 µM. Moreover, in test [4], the “PT (Prothrombin time) 2xPT” value was less than 50.0 µM.

Turning to `CC(C)Nc1ncc(-c2cc(N)cc(NCC3CCNCC3)c2)n(CC(=O)NCc2ccc(C(=N)N)cc2)c1=O.O=C(O)C(F)(F)F.O=C(O)C(F)(F)F` [Example 146], in test [1], the IC50 is less than 0.1 µM. In addition, the “PT (Prothrombin time) 2xPT” value in test [4] is less than 50.0 µM.

In the case of `CC[C@H](C)NC(=O)c1cc(N)cc(-c2cnc(NC3CC3)c(=O)n2CC(=O)NCc2ccc(C(=N)N)cc2)c1.O=C(O)C(F)(F)F.O=C(O)C(F)(F)F` [Example 184], in test [3] (setting [5]), the half-maximal inhibitory concentration (IC50) is less than 30 µM. For the same compound, the “PT (Prothrombin time) 2xPT” value in test [4] was less than 50.0 µM.

For the compound `CC(C)Nc1ncc(-c2cc(N)cc(N)c2)n(CC(=O)NCc2cc(O)c(C(=N)N)c(F)c2)c1=O.O=C(O)C(F)(F)F` [Example 117], the “PT (Prothrombin time) 2xPT” value in test [4] is less than 50.0 µM.

Regarding `CC(C)Nc1ncc(-c2cc(N)cc(NC3CCCC3)c2)n(CC(=O)NCc2ccc(C(=N)N)cc2)c1=O.O=C(O)C(F)(F)F.O=C(O)C(F)(F)F` [Example 148], in test [1], the IC50 was less than 0.1 µM. In addition, the “PT (Prothrombin time) 2xPT” value in test [4] is less than 50.0 µM.

As to `N=C(N)c1ccc(CNC(=O)Cn2c(-c3cc(N)cc(C(=O)OCc4ccccc4)c3)cnc(NC3CC3)c2=O)cc1.O=C(O)C(F)(F)F` [Example 251], the IC50 was less than 0.1 µM in test [1] and greater than 30 µM in test [3] (setting [5]). Further, in test [4], the “PT (Prothrombin time) 2xPT” value was less than 50.0 µM.

For the compound `CC(C)Nc1ncc(-c2cc(N)cc(NCCC(C)(C)C)c2)n(CC(=O)NCc2ccc(C(=N)N)cc2)c1=O.O=C(O)C(F)(F)F.O=C(O)C(F)(F)F` [Example 153], the “PT (Prothrombin time) 2xPT” value in test [4] is less than 50.0 µM.

Regarding `CC(C)Nc1ncc(-c2cc(N)cc(NCC3CCCNC3)c2)n(CC(=O)NCc2ccc(C(=N)N)cc2)c1=O.O=C(O)C(F)(F)F.O=C(O)C(F)(F)F` (stereo not drawn) [Example 147], the IC50 in test [1] is less than 0.1 µM. Also, the “PT (Prothrombin time) 2xPT” value in test [4] is less than 50.0 µM.
